Results published in patent publication US20060234292A1, “Methods of diagnosing and treating diabetes and insulin resistance” (priority 2002, published 2006).

Experiments:
Assay type in all cases: in vivo, human
[1] = system: MAST205b expression; experiment: Real-time PCR (Taqman) specific for MAST205b in muscle before/after 3 months troglitazone
Description: (§1) The gene expression changes observed in the human muscle samples derived from the various comparison populations analyzed in the profiling analysis described above were further confirmed by the use of real-time quantitative PCR. A combination of specific PCR primers and a Taqman probe were designed to detect and quantify expression levels for each gene. Relative gene expression levels were determined in this manner in each patient and the mean expression levels in the comparison populations were then calculated. […] PCR primers and Taqman Probe were designed to detect specifically the expression of MAST205b. The sequences of the primers was as follows: […]

[2] = system: MAST205/MAST205b transcripts; experiment: Gene expression profiling (Affymetrix chips) of muscle from diabetics before/after 3 months troglitazone: MAST205/MAST205b; conditions: basal muscle sample
Description: Gene expression profiling was performed on tissue samples (muscle) obtained from lean obese and diabetic individuals. Two studies were performed. In the first study, basal samples were isolated from all individuals at the beginning of a 5 hour hyperinsulinemic euglycemic clamp. Clamp samples were isolated at the end of this procedure. Similar basal and clamp samples were taken 3 months later after all patients had taken the insulin sensitizing drug troglitazone (tro). Gene expression profile differences were calculated as follows. The expression level of a particular gene is indicated by its ‘average difference score’. The raw data was analyzed by a statistical test to remove ‘outliers’. The mean ‘average difference score’ was then calculated from the average difference scores for all individuals in a particular treatment group. Genes were determined to be changed in three different comparisons by calculating the Students t test statistic between two conditions and selecting those with t less than or equal to 0.05. Fold change was determined as the ratio of mean average difference score in condition 2 to the mean average difference score in condition 1. The first comparison is basal leans (condition 1) versus basal obese (condition 2). The second comparison is basal leans (condition 1) versus basal diabetics (condition). […]

[3] = system: Protein C inhibitor (PCI) expression; experiment: Real time PCR of PCI expression in muscle, pre- vs post-troglitazone-treated patients; conditions: mean diabetic post-Tro/mean diabetic pre-Tro expression
Description: The gene expression changes observed in the human muscle samples derived from the various comparison populations analyzed in the profiling analysis described above were further confirmed by the use of real-time quantitative PCR. A combination of specific PCR primers and a Taqman probe were designed to detect and quantify expression levels for each gene. Relative gene expression levels were determined in this manner in each patient and the mean expression levels in the comparison populations were then calculated. PCI expression was also evaluated by real time PCR in lean vs. obese individuals and in pre-troglitazone-treated vs post-troglitazone-treated patients.

[4] = system: MAST205 expression; experiment: Real-time PCR (Taqman) specific for MAST205 in muscle before/after 3 months troglitazone
Description: as §1, with “MAST205.” for “MAST205b.”

[5] = system: Protein C inhibitor (PCI) transcripts; experiment: Gene expression profiling (Affymetrix chips) of muscle from diabetics before/after 3 months troglitazone: PCI; conditions: basal muscle sample
Excerpt: The molecular mechanism by which thiazolidinediones (TZDs) cause an increase in peripheral insulin sensitivity was studied. Genes in muscle or fat whose expression is altered by TZDs may lie on a pathway leading from TZD treatment to increased insulin sensitivity. Modulators of such genes can elicit the same effect as TZD treatment. Moreover, such modulators can lack some of the side effects of TZD. The majority of glucose disposal occurs in muscle. For this reason, gene expression profiling in human muscle from diabetics treated with troglitazone was used to identify genes important for TZD action and therefore treatment of diabetes and insulin resistance. Gene expression profiling was performed on tissue samples (muscle) obtained from lean obese and diabetic individuals. […] Gene expression profile differences were calculated as follows. […] The raw data was analyzed by a statistical test to remove ‘outliers’. The mean ‘average difference score’ was then calculated from the average difference scores for all individuals in a particular treatment group. Genes were determined to be changed in three different comparisons by calculating the Students t test statistic between two conditions and selecting those with t less than or equal to 0.05. Fold change was determined as the ratio of mean average difference score in condition 2 to the mean average difference score in condition 1. […]

[6] = muscle, lean individuals after 3 months troglitazone, relative to Lean Pre-Trog = 100%
[7] = ratio of relative expression Diabetic Post-Trog to Diabetic Pre-Trog
[8] = 3 months troglitazone, gene profiling

## Cc1c(C)c2c(c(C)c1O)CCC(C)(COc1ccc(CC3SC(=O)NC3=O)cc1)O2 (centres unmarked) [troglitazone]
[1]; muscle, diabetics after 3 months troglitazone, relative to Lean Pre-Trog = 100%, Diabetic Pre-Trog 197
  Relative Exp (%), Diabetic Post-Tro (MAST205b): 111%
[1]; [6]
  Relative Exp (%), Lean Post-Trog (MAST205b): 88%
[1]; [7]
  Fold Change (D+/D−) (MAST205b): 0.56
[2]; [8]
  Fold Change, Diabetic Post-Trog vs Pre-Trog (MAST205): 0.74
[2]; diabetics after 3 months troglitazone, pre-Trog mean 1234
  Mean Expr, Diabetic Post-Trog (MAST205): 919
[3]
  Expression Fold change, Diabetics + Tro/Diabetics − Tro (PCI): 0.33
[4]; muscle, diabetics after 3 months troglitazone, relative to Lean Pre-Trog = 100%, Diabetic Pre-Trog 242
  Relative Exp (%), Diabetic Post-Tro (MAST205): 66%
[4]; [6]
  Relative Exp (%), Lean Post-Trog (MAST205): 98%
[4]; [7]
  Fold Change (D+/D−) (MAST205): 0.27
[5]; [8]
  Fold Change (diabetic post tro/diabetic pre tro), Protein C inhibitor: 0.51
[5]; diabetics after 3 months of Troglitazone treatment, pre-Trog mean 1422
  Mean Expr, Diabetic Post-Trog (Protein C inhibitor): 722
